Measured values: PubChem BioAssay AID1745844 (Carcinogenic Potency Database (CPDB), 2022)
Calls of active or inactive are those of the source. No rule for the calls is given here.

Test system: rodent lifetime carcinogenesis bioassay, tumor incidence TD50
Experiment: carcinogenic potency in animals, long-term in vivo studies, CPDB compilation (AID 1745844)

## CCN(Cc1cccc(S(=O)(=O)[O-])c1)c1ccc(C(=C2C=CC(=[N+](C)C)C=C2)c2ccc(N(CC)Cc3cccc(S(=O)(=O)O)c3)cc2)cc1
mouse, strain ASH-CS1, females, in feed, site: liver, lesion: one or several types, types not named, dosed 80 weeks, study length 80 weeks
  carcinogen call: negative (inactive)
mouse, strain ASH-CS1, females, in feed, site: lung, lesion: adenoma, dosed 80 weeks, study length 80 weeks
  TD50: 1910 mg/kg/day (inactive)
mouse, strain ASH-CS1, males, in feed, site: liver, lesion: one or several types, types not named, dosed 80 weeks, study length 80 weeks
  carcinogen call: negative (inactive)
mouse, strain ASH-CS1, males, in feed, site: lung, lesion: adenocarcinoma, dosed 80 weeks, study length 80 weeks
  TD50: 4660 mg/kg/day (inactive)
mouse, strain ASH-CS1, males, in feed, site: lung, lesion: adenoma, dosed 80 weeks, study length 80 weeks
  carcinogen call: negative (inactive)
rat, strain Sprague-Dawley albino, females, in feed, site: any site (literature study), lesion: malignant tumor, dosed 52 weeks, study length 52 weeks
  TD50: 568 mg/kg/day
rat, strain Sprague-Dawley albino, females, in feed, site: any site (literature study), lesion: several types, types named in the paper, dosed 52 weeks, study length 52 weeks
  TD50: 660 mg/kg/day
rat, strain Sprague-Dawley albino, females, in feed, site: ear duct, lesion: carcinoma, dosed 52 weeks, study length 52 weeks
  TD50: 1600 mg/kg/day
rat, strain Sprague-Dawley albino, females, in feed, site: mammary gland, lesion: carcinoma, dosed 52 weeks, study length 52 weeks
  TD50: 1140 mg/kg/day
rat, strain Sprague-Dawley, females, in feed, site: any site (literature study), lesion: several types, types named in the paper, dosed 51 weeks, study length 52 weeks
  TD50: 418 mg/kg/day
rat, strain Sprague-Dawley, females, in feed, site: mammary gland, lesion: carcinoma, dosed 51 weeks, study length 52 weeks
  TD50: 573 mg/kg/day
rat, strain Sprague-Dawley, females, in feed, site: skin, lesion: squamous-cell carcinoma, dosed 51 weeks, study length 52 weeks
  TD50: 1100 mg/kg/day

## CCN(CC)C(=S)[S-].CCN(CC)C(=S)[S-].[Cd+2]
mouse, strain B6AKF1, females, oral dosing, site: any site (literature study), lesion: several types, types named in the paper, dosed 76 weeks, study length 76 weeks
  TD50: 47.5 mg/kg/day (inactive)
mouse, strain B6AKF1, females, oral dosing, site: liver, lesion: hepatoma, dosed 76 weeks, study length 76 weeks
  carcinogen call: negative (inactive)
mouse, strain B6AKF1, females, oral dosing, site: lung, lesion: adenoma, dosed 76 weeks, study length 76 weeks
  carcinogen call: negative (inactive)
mouse, strain B6AKF1, males, oral dosing, site: any site (literature study), lesion: several types, types named in the paper, dosed 76 weeks, study length 76 weeks
  carcinogen call: negative (inactive)
mouse, strain B6AKF1, males, oral dosing, site: liver, lesion: hepatoma, dosed 76 weeks, study length 76 weeks
  carcinogen call: negative (inactive)
mouse, strain B6AKF1, males, oral dosing, site: lung, lesion: adenoma, dosed 76 weeks, study length 76 weeks
  carcinogen call: negative (inactive)
mouse, strain B6C3F1, females, oral dosing, site: any site (literature study), lesion: several types, types named in the paper, dosed 76 weeks, study length 76 weeks
  TD50: 18 mg/kg/day (inactive)
mouse, strain B6C3F1, females, oral dosing, site: liver, lesion: hepatoma, dosed 76 weeks, study length 76 weeks
  carcinogen call: negative (inactive)
mouse, strain B6C3F1, females, oral dosing, site: lung, lesion: adenoma, dosed 76 weeks, study length 76 weeks
  TD50: 57.4 mg/kg/day (inactive)
mouse, strain B6C3F1, males, oral dosing, site: any site (literature study), lesion: several types, types named in the paper, dosed 76 weeks, study length 76 weeks
  TD50: 6.2 mg/kg/day (inactive)
mouse, strain B6C3F1, males, oral dosing, site: liver, lesion: hepatoma, dosed 76 weeks, study length 76 weeks
  TD50: 16.7 mg/kg/day (inactive)
mouse, strain B6C3F1, males, oral dosing, site: lung, lesion: adenoma, dosed 76 weeks, study length 76 weeks
  TD50: 25.9 mg/kg/day (inactive)
